Test results as given in US10357447B2, “Cosmetic compositions comprising sclareolide” (Symrise AG, priority 2015, dated 2019).
Blank lines part the entries; values can stand above or below the compound they belong to.

Columns and labels:
AhR = target: T1, AhR (Homo sapiens, UniProt P35869); experiment: AhR antagonism, luciferase reporter gene assay in XRE-HepG2 cells; format: cell-based; conditions: 16 h or 24 h
T1 construct: endogenous in cells; host or cells: XRE-HepG2 (HepG2 carrying an XRE-driven luciferase reporter)
T1 sequence (P35869 11-848): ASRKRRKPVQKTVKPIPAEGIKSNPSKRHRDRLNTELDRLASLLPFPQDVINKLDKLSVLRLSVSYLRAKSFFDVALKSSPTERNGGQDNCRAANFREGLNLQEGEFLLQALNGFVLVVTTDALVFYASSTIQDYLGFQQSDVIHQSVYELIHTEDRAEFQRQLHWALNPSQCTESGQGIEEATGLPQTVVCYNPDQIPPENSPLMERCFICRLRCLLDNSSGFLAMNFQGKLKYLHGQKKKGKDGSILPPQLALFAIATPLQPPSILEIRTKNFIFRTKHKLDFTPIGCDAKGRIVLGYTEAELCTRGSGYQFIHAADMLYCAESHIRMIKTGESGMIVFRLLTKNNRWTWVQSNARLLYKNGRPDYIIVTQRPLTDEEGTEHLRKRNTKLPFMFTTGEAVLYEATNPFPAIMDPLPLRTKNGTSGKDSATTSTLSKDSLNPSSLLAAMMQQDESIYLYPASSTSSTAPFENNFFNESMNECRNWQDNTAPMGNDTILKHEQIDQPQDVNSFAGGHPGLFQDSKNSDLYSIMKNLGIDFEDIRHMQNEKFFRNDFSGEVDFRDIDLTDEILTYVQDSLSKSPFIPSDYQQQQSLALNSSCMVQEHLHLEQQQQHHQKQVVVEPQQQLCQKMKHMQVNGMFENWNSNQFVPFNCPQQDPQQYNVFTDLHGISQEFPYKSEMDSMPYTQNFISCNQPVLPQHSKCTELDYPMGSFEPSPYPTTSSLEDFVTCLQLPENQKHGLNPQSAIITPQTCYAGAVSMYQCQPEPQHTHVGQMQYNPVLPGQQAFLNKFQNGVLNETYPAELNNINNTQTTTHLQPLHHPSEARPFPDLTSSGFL
Protocol: For reporter gene analyses, 1×10^5 XRE-HepG2 cells/well were seeded in 12-well plates and cultured overnight. Cells were treated for 16 h or 24 h with the indicated substances.
Cell lysates were prepared, and luciferase activities were determined using the luciferase assay system. Protein concentrations were determined by using the BC Assay protein quantification kit. Luciferase activities were normalized against the protein concentration of each probe. Each sample was analyzed in triplicate.

POMC protein level = experiment: Particle-induced POMC protein release from HaCaT cells (ELISA of supernatant); format: cell-based
Protocol: II) HaCaT cells are seeded into a 96-well plate with 0.3×10^4 cells/well. After incubation over night the test compound (10 μM Sclareolide) is added to the cells and the plate is incubated for two more hours. Then diesel exhaust particles (SRM 1650b) are added to a final concentration of 1.5 μg/cm2 and the plate incubated for 24 hours. The supernatant is transferred into an ELISA plate (Cusabio, CSB-E09307 h) and the POMC protein level quantified using ELISA technique performed according to the manufacturer's instructions.

POMC gene expression = experiment: Particle-induced POMC gene expression in human epidermal keratinocytes (qRT-PCR); format: cell-based; conditions: for POMC 6 h gene expression: control = 1, particles alone 1.5 ± 0.031
Protocol: (§1) Gene expression was analyzed via qRT-PCR.
(§2) Ginger root CO2 extract has been dissolved in DMSO and diluted in medium. […] Gene expression was analyzed via qRT-PCR. […] Table 9 compiles the results for ginger root CO2 extract altered POMC and IL-6 gene expression
(§3) Purple coneflower pressed juice has been dissolved directly in medium. […] Gene expression was analyzed via qRT-PCR. […] Table 10 compiles the results for purple coneflower pressed juice altered POMC and IL-6 gene expression
(§4) A mixture of sclareloide and ginger root CO2 extract has been dissolved directly in medium. […] Gene expression was analyzed via qRT-PCR. […] Table 11 compiles the results for […] altered POMC and IL-6 gene expression

IL-6 gene expression = experiment: Particle-induced IL-6 gene expression in human epidermal keratinocytes (qRT-PCR); format: cell-based; conditions: for IL-6 6 h gene expression: SRM1650b
Protocol: as §1, §2, §3, §4

MMP1 gene expression = experiment: Particle-induced MMP1 gene expression in human epidermal keratinocytes (qRT-PCR); format: cell-based; conditions: for MMP-1 24 h gene expression / MMP1 24 h gene expression: SRM1650b; for MMP-1 24 h gene expression: untreated = 1, particles alone 1.57 ± 0.05; for MMP1 24 h gene expression: control = 1, particles alone 1.3 ± 0.03
Protocol: as §1

CYP1A1 gene expression = experiment: Particle-induced CYP1A1 gene expression in human epidermal keratinocytes (qRT-PCR); conditions: for CYP1A1 Induction mean ± SE: NHEK adult; for CYP1A1 Induction mean ± SE / CYP1A1 gene expression, Induction mean ± SE: 10 μM; for CYP1A1 gene expression, Induction mean ± SE: indoor particles Huber990 1.5 μg/cm2
Protocol: Adult human epidermal keratinocytes were cultured in keratinocyte medium without BPE and without EGF for 24 h prior to addition of model particles (see table 1.1). The model particles were suspended in phosphate buffered saline and were sonicated for 1 min and then directly added to the keratinocytes at 1.5 μg/cm^2. […] Solutions containing the compound with maximal 0.1% DMSO were applied 2 h prior to treatment with the model particles. Gene expression was analyzed via qRT-PCR.

Relative luciferase activity (fold of DMSO control) (AhR; 10 μM + 1 μM BaP, DMSO = 1.00, BaP alone 20.78 ± 1.04): 12.28 ± 4.90 fold of DMSO control
Relative luciferase activity (fold of DMSO control) (AhR; 20 μM + 1 μM BaP, DMSO = 1.00, BaP alone 20.78 ± 1.04): 9.60 ± 1.32 fold of DMSO control
Relative luciferase activity (fold of DMSO control) (AhR; 20 μM alone, no BaP, DMSO = 1.00): 1.06 ± 0.45 fold of DMSO control
Compound: CC1(C)CCC[C@]2(C)C3CC(=O)O[C@]3(C)CC[C@@H]12 (stereo partly drawn) [Sclareolide, (3aR,5aS,9aS,9bR)-decahydro-3a,6,6,9a-tetramethyl-naphtha[2,1-b]furan-2(1H)-one]
POMC normalized to control (POMC protein level; 10 μM Sclareolide added 2 h before SRM 1650b 1.5 μg/cm2, 24 hours, control = 1.00, particles alone 1.43 ± 0.082): 1.22 ± 0.009
particle induced POMC release (result in words) (POMC protein level; SRM 1650b): capable to inhibit
particle induced POMC gene expression (result in words) (POMC gene expression): capable to inhibit
POMC 24 h gene expression (POMC gene expression; 10 μM, SRM1650b, untreated = 1, particles alone 1.50 ± 0.06): 1.03 ± 0.07
POMC 24 h gene expression (POMC gene expression; 10 μM, SRM2975, untreated = 1, particles alone 1.30 ± 0.00): 0.73 ± 0.06
particle induced IL-6 gene expression (result in words) (IL-6 gene expression): capable to inhibit
IL-6 6 h gene expression (IL-6 gene expression; 0.00001%, untreated = 1, particles alone 1.90 ± 0.04): 1.53 ± 0.04
IL-6 6 h gene expression (IL-6 gene expression; 0.00005%, untreated = 1, particles alone 1.90 ± 0.04): 1.42 ± 0.02
particle induced MMP1 gene expression (result in words) (MMP1 gene expression): capable to inhibit
MMP-1 24 h gene expression (MMP1 gene expression; 0.00001%): 1.41 ± 0.04
MMP-1 24 h gene expression (MMP1 gene expression; 0.00005%): 1.29 ± 0.02

CYP1A1 Induction mean ± SE (CYP1A1 gene expression; SRM1650 1.5 μg/cm2, 6 h, untreated = 1, particles alone 2.90 ± 0.12): 0.02 ± 0.00
CYP1A1 Induction mean ± SE (CYP1A1 gene expression; SRM1650 1.5 μg/cm2, 6 h, untreated = 1, particles alone 5.33 ± 0.07): 1.83 ± 0.03
CYP1A1 Induction mean ± SE (CYP1A1 gene expression; SRM1650 1.5 μg/cm2, 24 h, untreated = 1, particles alone 16.53 ± 0.98): 4.17 ± 0.09
CYP1A1 Induction mean ± SE (CYP1A1 gene expression; SRM1650 1.5 μg/cm2, 24 h, untreated = 1, particles alone 23.23 ± 0.64): 8.77 ± 0.09
CYP1A1 Induction mean ± SE (CYP1A1 gene expression; SRM2975 1.5 μg/cm2, 6 h, untreated = 1, particles alone 1.03 ± 0.03 (n.s.)): 0.20 ± 0.00
CYP1A1 Induction mean ± SE (CYP1A1 gene expression; SRM2975 1.5 μg/cm2, 6 h, untreated = 1, particles alone 2.07 ± 0.07): 0.05 ± 0.0003
CYP1A1 Induction mean ± SE (CYP1A1 gene expression; SRM2975 1.5 μg/cm2, 24 h, untreated = 1, particles alone 4.90 ± 0.17): 0.01 ± 0.00
CYP1A1 Induction mean ± SE (CYP1A1 gene expression; SRM2975 1.5 μg/cm2, 24 h, untreated = 1, particles alone 5.10 ± 0.06): 0.60 ± 0.06
particle induced Cyp1A1 gene expression (result in words) (CYP1A1 gene expression; indoor as well as outdoor model particles): capable to inhibit
CYP1A1 gene expression, Induction mean ± SE (CYP1A1 gene expression; 6 h, untreated = 1, particles alone 2.70 ± 0.00): 0.05 ± 0.00
CYP1A1 gene expression, Induction mean ± SE (CYP1A1 gene expression; 24 h, untreated = 1, particles alone 2.90 ± 0.00): 0.20 ± 0.00
Compound: E/Z-2-benzylindene-5,6-dimethoxy-3,3-dimethylindan-1-one [BDDI]
particle induced POMC gene expression (result in words) (POMC gene expression): capable to inhibit
POMC 6 h gene expression (POMC gene expression; 1 μM, SRM1650b): 0.9 ± 0.018
POMC 6 h gene expression (POMC gene expression; 2.5 μM, SRM1650b): 1.1 ± 0.02
POMC 6 h gene expression (POMC gene expression; 10 μM, SRM1650b): 0.9 ± 0.001
particle induced IL-6 gene expression (result in words) (IL-6 gene expression): capable to inhibit
IL-6 6 h gene expression (IL-6 gene expression; 1 μM, control = 1, particles alone 1.4 ± 0.041): 0.9 ± 0.067
IL-6 6 h gene expression (IL-6 gene expression; 2.5 μM, control = 1, particles alone 1.4 ± 0.041): 0.6 ± 0.006
IL-6 6 h gene expression (IL-6 gene expression; 10 μM, control = 1, particles alone 1.4 ± 0.041): 0.5 ± 0.01
particle induced MMP1 gene expression (result in words) (MMP1 gene expression): capable to inhibit
MMP1 24 h gene expression (MMP1 gene expression; 1 μM): 0.7 ± 0.014
MMP1 24 h gene expression (MMP1 gene expression; 2.5 μM): 0.8 ± 0.016
MMP1 24 h gene expression (MMP1 gene expression; 10 μM): 0.5 ± 0.022
